pIC50: −log10 of the molar value.

One assay has as its target Histone deacetylase 1 (Homo sapiens, UniProt Q13547). In words: Inhibition of human HDAC1 pre-incubated for 30 mins before substrate addition and measured after 30 mins by HDAC-Glo I/II assay.
The target of another assay is Histone deacetylase 2 (Homo sapiens, UniProt Q92769). In words: Inhibition of human HDAC2 pre-incubated for 30 mins before substrate addition and measured after 30 mins by HDAC-Glo I/II assay.
A further assay concerns the target Histone deacetylase 3 (Homo sapiens, UniProt O15379). In words: Inhibition of human HDAC3 pre-incubated for 30 mins before substrate addition and measured after 30 mins by HDAC-Glo I/II assay.
The next assay has as its target T1, Histone deacetylase 8 (Homo sapiens, UniProt Q9BY41).
T1 sequence (Q9BY41 whole entry): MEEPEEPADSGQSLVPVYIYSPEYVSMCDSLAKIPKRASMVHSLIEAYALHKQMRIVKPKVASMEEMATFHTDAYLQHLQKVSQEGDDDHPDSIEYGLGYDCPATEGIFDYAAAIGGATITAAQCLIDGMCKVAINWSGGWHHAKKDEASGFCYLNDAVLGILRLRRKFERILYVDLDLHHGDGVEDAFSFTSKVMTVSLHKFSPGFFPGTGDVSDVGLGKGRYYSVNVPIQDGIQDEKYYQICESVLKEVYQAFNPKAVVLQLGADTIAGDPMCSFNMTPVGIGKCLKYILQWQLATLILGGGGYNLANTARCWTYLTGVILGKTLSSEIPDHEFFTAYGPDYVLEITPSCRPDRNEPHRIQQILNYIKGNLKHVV
As to the kind of experiment: Inhibition of human HDAC8 pre-incubated for 30 mins before substrate addition and measured after 30 mins by HDAC-Glo I/II assay.

A further assay has as its target Histone deacetylase 4 (Homo sapiens, UniProt P56524). In words: Inhibition of human HDAC4 pre-incubated for 30 mins before substrate addition and measured after 30 mins by HDAC-Glo I/II assay.
The target of a further assay is Histone deacetylase 9 (Homo sapiens, UniProt Q9UKV0). As to the kind of experiment: Inhibition of human HDAC9 pre-incubated for 30 mins before substrate addition and measured after 30 mins by HDAC-Glo I/II assay.
Histone deacetylase 9, sequence (Q9UKV0 whole entry): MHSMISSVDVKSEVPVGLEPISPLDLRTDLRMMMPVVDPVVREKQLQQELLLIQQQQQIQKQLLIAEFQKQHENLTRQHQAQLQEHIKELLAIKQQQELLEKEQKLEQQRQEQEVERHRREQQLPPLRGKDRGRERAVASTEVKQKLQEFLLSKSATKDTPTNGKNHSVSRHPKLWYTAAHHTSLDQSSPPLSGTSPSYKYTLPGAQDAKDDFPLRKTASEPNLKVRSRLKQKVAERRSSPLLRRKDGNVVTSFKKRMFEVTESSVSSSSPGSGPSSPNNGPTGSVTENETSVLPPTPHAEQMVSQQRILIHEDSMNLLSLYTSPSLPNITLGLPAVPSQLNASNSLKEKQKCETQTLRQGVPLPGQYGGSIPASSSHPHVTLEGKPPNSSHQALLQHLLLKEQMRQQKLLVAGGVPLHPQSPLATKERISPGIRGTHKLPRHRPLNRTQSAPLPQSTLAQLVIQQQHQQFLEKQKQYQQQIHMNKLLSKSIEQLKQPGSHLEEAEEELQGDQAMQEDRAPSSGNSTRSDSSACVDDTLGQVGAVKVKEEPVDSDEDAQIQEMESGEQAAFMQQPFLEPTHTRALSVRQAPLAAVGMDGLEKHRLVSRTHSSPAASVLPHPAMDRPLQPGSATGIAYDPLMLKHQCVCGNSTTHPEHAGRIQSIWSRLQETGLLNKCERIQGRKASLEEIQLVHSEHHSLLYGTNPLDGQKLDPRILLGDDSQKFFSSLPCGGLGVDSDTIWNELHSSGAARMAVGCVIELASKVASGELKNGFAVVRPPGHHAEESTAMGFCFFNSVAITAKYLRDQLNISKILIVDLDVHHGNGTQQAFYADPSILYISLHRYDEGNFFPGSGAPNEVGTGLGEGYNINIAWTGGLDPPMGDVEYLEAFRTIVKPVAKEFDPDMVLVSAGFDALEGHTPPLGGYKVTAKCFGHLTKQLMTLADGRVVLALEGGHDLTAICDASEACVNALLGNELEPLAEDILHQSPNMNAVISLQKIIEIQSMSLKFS
The target in assay [1] is T2, Protein deacetylase HDAC6 (Homo sapiens, UniProt Q9UBN7).
T2 sequence (Q9UBN7 whole entry): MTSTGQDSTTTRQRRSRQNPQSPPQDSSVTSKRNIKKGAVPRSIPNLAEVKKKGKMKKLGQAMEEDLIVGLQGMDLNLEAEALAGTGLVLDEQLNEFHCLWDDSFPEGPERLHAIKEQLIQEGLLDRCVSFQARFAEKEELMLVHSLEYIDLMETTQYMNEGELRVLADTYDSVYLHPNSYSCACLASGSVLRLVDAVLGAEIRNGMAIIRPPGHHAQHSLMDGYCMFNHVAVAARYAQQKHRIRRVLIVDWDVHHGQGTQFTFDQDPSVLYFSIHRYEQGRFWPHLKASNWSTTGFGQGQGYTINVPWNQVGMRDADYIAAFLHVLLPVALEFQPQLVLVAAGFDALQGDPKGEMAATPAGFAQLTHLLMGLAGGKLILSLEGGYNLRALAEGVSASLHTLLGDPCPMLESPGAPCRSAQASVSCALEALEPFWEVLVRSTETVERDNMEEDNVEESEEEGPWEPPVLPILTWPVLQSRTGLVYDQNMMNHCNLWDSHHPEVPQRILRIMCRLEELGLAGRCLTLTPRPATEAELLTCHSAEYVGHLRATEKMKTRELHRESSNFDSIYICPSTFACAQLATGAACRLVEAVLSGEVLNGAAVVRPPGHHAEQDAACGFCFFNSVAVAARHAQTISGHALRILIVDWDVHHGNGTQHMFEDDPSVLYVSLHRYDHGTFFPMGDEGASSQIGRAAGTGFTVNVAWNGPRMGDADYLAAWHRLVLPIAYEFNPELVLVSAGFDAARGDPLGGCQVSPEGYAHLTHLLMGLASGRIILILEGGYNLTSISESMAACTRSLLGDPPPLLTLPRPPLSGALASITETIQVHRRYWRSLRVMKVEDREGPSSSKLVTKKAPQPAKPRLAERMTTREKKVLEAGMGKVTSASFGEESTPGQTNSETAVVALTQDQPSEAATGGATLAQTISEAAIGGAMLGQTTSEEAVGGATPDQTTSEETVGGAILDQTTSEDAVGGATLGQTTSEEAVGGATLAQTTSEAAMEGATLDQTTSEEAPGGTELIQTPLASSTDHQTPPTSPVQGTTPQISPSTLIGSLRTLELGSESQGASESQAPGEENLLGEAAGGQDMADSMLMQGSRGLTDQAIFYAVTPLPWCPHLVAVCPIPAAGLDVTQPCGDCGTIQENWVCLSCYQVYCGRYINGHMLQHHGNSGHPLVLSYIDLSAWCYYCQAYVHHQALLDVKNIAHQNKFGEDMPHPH
In words: Inhibition of human HDAC6 pre-incubated for 30 mins before substrate addition and measured after 30 mins by HDAC-Glo I/II assay.

Assay [2] concerns the target T3, Histone deacetylase (Rattus norvegicus) (UniProt Q6P6W3+Q99P99+Q99P96+Q4QQW4+Q99P97+Q5RJZ2+B1WBY8). As to conditions: at 10 µM.
Description: Inhibition of rat liver HDAC at 10 uM pre-incubated for 15 mins before Boc-Lys(Ac)-AMC substrate addition and measured after 30 mins by fluorometry
The target of assay [3] is T3, Histone deacetylase (Rattus norvegicus). The following applies: at 0.1 µM.
Description: Inhibition of rat liver HDAC at 0.1 uM pre-incubated for 15 mins before Boc-Lys(Ac)-AMC substrate addition and measured after 30 mins by fluorometry

Histone deacetylase 3, sequence (O15379 whole entry): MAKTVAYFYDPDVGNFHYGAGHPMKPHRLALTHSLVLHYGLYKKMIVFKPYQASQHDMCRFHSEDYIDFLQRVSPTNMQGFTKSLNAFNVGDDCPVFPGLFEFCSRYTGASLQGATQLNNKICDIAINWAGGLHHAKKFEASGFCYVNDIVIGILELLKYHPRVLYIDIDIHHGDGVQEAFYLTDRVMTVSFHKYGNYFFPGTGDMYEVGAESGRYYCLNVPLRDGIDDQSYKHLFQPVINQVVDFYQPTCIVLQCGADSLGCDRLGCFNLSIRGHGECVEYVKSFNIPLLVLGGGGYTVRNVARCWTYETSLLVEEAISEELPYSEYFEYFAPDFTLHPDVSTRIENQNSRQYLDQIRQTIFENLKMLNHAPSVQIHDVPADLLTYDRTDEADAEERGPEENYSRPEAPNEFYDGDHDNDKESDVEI
Histone deacetylase 4, sequence (P56524 whole entry): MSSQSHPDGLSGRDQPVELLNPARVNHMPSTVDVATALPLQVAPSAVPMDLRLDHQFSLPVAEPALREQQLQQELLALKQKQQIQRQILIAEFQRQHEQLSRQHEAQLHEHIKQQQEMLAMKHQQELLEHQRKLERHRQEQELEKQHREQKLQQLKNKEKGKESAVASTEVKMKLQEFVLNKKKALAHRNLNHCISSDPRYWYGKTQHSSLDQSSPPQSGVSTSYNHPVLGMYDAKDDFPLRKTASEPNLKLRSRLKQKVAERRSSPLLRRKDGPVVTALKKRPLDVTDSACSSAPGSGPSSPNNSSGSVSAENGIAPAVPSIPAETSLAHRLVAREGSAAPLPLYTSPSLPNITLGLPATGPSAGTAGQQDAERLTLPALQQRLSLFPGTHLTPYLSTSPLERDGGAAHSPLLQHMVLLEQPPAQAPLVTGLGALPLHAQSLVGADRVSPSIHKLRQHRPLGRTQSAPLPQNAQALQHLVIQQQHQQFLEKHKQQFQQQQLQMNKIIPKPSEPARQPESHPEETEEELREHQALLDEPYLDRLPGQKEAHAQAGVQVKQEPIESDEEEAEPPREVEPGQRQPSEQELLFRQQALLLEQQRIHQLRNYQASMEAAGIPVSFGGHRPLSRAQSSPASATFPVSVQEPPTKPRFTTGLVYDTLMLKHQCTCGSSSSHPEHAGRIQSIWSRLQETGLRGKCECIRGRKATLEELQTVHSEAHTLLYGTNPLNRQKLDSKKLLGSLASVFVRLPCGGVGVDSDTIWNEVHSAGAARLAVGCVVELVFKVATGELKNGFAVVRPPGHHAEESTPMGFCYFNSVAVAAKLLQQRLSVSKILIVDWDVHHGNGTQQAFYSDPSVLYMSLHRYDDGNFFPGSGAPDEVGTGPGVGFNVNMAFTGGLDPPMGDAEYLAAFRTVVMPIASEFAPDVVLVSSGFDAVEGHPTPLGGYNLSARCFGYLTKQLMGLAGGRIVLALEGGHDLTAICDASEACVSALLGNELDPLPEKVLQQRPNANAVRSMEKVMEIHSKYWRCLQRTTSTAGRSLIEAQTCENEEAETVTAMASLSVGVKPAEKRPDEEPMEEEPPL
Histone deacetylase 2, sequence (Q92769 whole entry): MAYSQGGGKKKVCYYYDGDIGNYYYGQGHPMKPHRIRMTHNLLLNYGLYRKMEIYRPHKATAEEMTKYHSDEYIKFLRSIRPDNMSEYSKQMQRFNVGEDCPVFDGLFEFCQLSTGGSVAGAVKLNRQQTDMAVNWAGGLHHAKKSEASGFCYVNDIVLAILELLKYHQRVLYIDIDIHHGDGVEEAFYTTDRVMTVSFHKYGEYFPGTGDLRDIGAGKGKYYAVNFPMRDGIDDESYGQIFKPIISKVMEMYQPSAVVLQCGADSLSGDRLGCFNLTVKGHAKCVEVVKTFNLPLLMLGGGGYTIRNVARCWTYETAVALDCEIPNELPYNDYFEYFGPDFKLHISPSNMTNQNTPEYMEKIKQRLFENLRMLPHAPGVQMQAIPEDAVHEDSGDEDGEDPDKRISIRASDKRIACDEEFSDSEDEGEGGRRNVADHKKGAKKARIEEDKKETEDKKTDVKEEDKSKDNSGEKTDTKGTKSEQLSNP
Histone deacetylase 1, sequence (Q13547 whole entry): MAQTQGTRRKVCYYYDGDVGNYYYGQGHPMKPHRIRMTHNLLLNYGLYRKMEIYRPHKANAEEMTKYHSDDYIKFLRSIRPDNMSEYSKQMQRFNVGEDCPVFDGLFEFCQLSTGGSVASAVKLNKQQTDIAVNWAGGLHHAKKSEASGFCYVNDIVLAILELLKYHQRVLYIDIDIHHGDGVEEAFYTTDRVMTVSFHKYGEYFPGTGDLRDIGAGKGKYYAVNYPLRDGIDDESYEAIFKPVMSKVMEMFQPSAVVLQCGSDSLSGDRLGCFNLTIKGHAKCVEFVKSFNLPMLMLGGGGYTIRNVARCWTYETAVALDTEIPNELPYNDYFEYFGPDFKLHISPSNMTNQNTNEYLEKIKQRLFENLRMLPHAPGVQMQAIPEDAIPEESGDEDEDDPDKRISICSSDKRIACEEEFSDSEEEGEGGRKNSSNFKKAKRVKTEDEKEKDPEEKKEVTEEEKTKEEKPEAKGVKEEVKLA

For the molecule `CC1(C)CC(=O)Nc2ccc(C(=O)NCc3ccc(/C=C/C(=O)NO)cc3)cc21`, the pIC50 (usually −log10 of the IC50, conventionally taken in molar units) against Histone deacetylase 1 was 7.18; at Histone deacetylase 2, 7.66; at Histone deacetylase 3, 7.19; against Histone deacetylase 8 it was 7.31; against Histone deacetylase 4, 6.42; against Histone deacetylase 9, 7.43. In assay [1], the pIC50 was 6.96. Besides, the inhibition – broadly, the change of the read-out against control, counted positive when it falls – in [2] turned out to be 98%; in assay [3] it was 46%.

As for `CC1(C)CC(=O)Nc2ccc(C(=O)NC[C@H]3CC[C@H](CCC(=O)NO)CC3)cc21`, the pIC50 was 7.46 at Histone deacetylase 1; 7.46 against Histone deacetylase 2; 7.05 at Histone deacetylase 3; 7.55 on Histone deacetylase 8; 6.66 against Histone deacetylase 4; 7.24 against Histone deacetylase 9. Besides, the pIC50 in assay [1] was 6.36. Moreover, the inhibition in assay [2] was found to be 99%; in [3], 43%.

`O=C(CCCCCCC(=O)Nc1ccc2[nH]c(=O)ccc2c1)NO`: the pIC50 at Histone deacetylase 1 was 7.46; on Histone deacetylase 2, 7.35; at Histone deacetylase 3, 7.27; at Histone deacetylase 8, 7.32; against Histone deacetylase 4, 7.20; at Histone deacetylase 9 it was 7.24. This molecule also had a pIC50 in [1] of 7.18. The figures for the inhibition in assay [2] and in [3] were 99% and 66%, respectively.

On to `CC1(C)CC(=O)Nc2ccc(C(=O)NC[C@H]3CC[C@H](/C=C/C(=O)NO)CC3)cc21`, for which the pIC50 is 8.42 on Histone deacetylase 1; 8.09 against Histone deacetylase 2; 7.82 on Histone deacetylase 3; 8.22 at Histone deacetylase 8; 7.24 at Histone deacetylase 4; 8.28 against Histone deacetylase 9. The molecule further gave a pIC50 in assay [1] of 7.24. Further, the values for the inhibition in [2] and in [3] were 98% and 55%, respectively.

`COc1ccc2cc(C(=O)NCCCCCCC(=O)NO)ccc2n1`: the pIC50 against Histone deacetylase 1 is 7.28; on Histone deacetylase 2, 6.77; on Histone deacetylase 3, 7.55; at Histone deacetylase 8, 7.10; on Histone deacetylase 4, 7.11; on Histone deacetylase 9, 7.47. This molecule also showed a pIC50 in assay [1] of 7.40. The inhibition in assay [2] is 100%; in assay [3], 70%.

`O=C(CCCCCCNC(=O)c1ccc2c(c1)CCC(=O)N2)NO`: the pIC50 against Histone deacetylase 1 is 7.62; at Histone deacetylase 2, 7.70; at Histone deacetylase 3 it was 7.07; against Histone deacetylase 8, 7.28; at Histone deacetylase 4, 6.92; on Histone deacetylase 9, 7.46. The molecule further gave a pIC50 in [1] of 6.37. Besides, the figures for the inhibition in assay [2] and in assay [3] were 98% and 45%, respectively.

As for `CC1(C)CC(=O)Nc2ccc(NC(=O)CCCCCCC(=O)NO)cc21`, the negative logarithm of the IC50 (pIC50) was 8.04 against Histone deacetylase 1; 8.00 against Histone deacetylase 2; 7.05 at Histone deacetylase 3; 7.48 on Histone deacetylase 8; 7.33 at Histone deacetylase 4; 7.35 at Histone deacetylase 9. The molecule also had a pIC50 in [1] of 6.26. In addition, the inhibition in assay [2] amounted to 98%; in assay [3], 58%.

Turning to `CC1(C)CC(=O)Nc2ccc(C(=O)NCc3cccc(/C=C/C(=O)NO)c3)cc21`, the pIC50 against Histone deacetylase 1 was 6.17; against Histone deacetylase 2, 7.00; on Histone deacetylase 3 it was 6.68; on Histone deacetylase 8 it was 6.70; against Histone deacetylase 4, 5.70; against Histone deacetylase 9, 6.24. In assay [1], this molecule had a pIC50 of 6.54. The inhibition was 95% in assay [2] and 22% in assay [3].

The record behind these values is ChEMBL document CHEMBL3351757, “Design and synthesis of novel and highly-active pan-histone deacetylase (pan-HDAC) inhibitors” (Bioorg Med Chem, 2014).
